According to ChEMBL document CHEMBL3046479, “Preparation and antimicrobial activity evaluation of some new bi- and triheterocyclic azoles” (2013):
Converted amounts (≈) assume the structure as drawn. The source made the active and inactive calls. The rule behind the calls is not given here.

Experiments:
Assay type in all cases: functional
[1] = test system: Candida albicans; assay: Antimicrobial activity against Candida albicans ATCC 60193 assessed as growth inhibition after 18-24 hr by broth double microdilution method
[2] = test system: Mycolicibacterium smegmatis; assay: Antimicrobial activity against Mycobacterium smegmatis ATCC 607 assessed as growth inhibition after 48-72 hr by broth double microdilution method
[3] = test system: Bacillus cereus; assay: Antimicrobial activity against Bacillus cereus 709 Roma assessed as growth inhibition after 18-24 hr by broth double microdilution method
[4] = test system: Staphylococcus aureus; assay: Antimicrobial activity against Staphylococcus aureus ATCC 25923 assessed as growth inhibition after 18-24 hr by broth double microdilution method
[5] = test system: Enterococcus faecalis; assay: Antimicrobial activity against Enterococcus faecalis ATCC 29212 assessed as growth inhibition after 18-24 hr by broth double microdilution method
[6] = test system: Listeria monocytogenes; assay: Antimicrobial activity against Listeria monocytogenes ATCC 43251 assessed as growth inhibition after 18-24 hr by broth double microdilution method
[7] = test system: Pseudomonas aeruginosa; assay: Antimicrobial activity against Pseudomonas aeruginosa ATCC 10145 assessed as growth inhibition after 18-24 hr by broth double microdilution method
[8] = test system: Yersinia pseudotuberculosis; assay: Antimicrobial activity against Yersinia pseudotuberculosis ATCC 911 assessed as growth inhibition after 18-24 hr by broth double microdilution method
[9] = test system: Escherichia coli; assay: Antimicrobial activity against Escherichia coli ATCC 35218 assessed as growth inhibition after 18-24 hr by broth double microdilution method
[10] = test system: Saccharomyces cerevisiae; assay: Antimicrobial activity against Saccharomyces cerevisiae RSKK 251 assessed as growth inhibition after 18-24 hr by broth double microdilution method

Compound | MIC [1] | MIC [2] | MIC [3] | MIC [4] | MIC [5] | MIC [6] | MIC [7] | MIC [8] | MIC [9] | MIC [10]
CCOC(=O)Cn1nc(C)n(/N=C/c2ccncc2)c1=O | 250 µg/mL (≈ 864 µM) | inactive | inactive | inactive | inactive | inactive | inactive | inactive | inactive | inactive
Cc1nn(CC(=O)NN)c(=O)n1/N=C/c1ccncc1 | 500 µg/mL (≈ 1820 µM) | 250 µg/mL (≈ 908 µM) | inactive | inactive | inactive | inactive | inactive | inactive | inactive | inactive
Cc1nn(CC(=O)N/N=C/c2ccccc2O)c(=O)n1/N=C/c1ccncc1 | 250 µg/mL (≈ 659 µM) | inactive | inactive | inactive | inactive | inactive | inactive | inactive | inactive | inactive
Cc1nn(CNCc2ccco2)c(=O)n1CCCn1ccnc1 | 500 µg/mL (≈ 1580 µM) | 125 µg/mL (≈ 395 µM) | 125 µg/mL (≈ 395 µM) | inactive | inactive | inactive | inactive | inactive | inactive | inactive
Cc1nn(-c2ccc([N+](=O)[O-])cc2F)c(=O)n1CCCn1ccnc1 | 500 µg/mL (≈ 1440 µM) | inactive | inactive | inactive | inactive | inactive | inactive | inactive | inactive | 500 µg/mL (≈ 1440 µM)
Cc1nn(-c2ccc(N)cc2F)c(=O)n1CCCn1ccnc1 | 250 µg/mL (≈ 790 µM) | 31.3 µg/mL (≈ 98.9 µM) | inactive | inactive | inactive | inactive | inactive | inactive | inactive | 62.5 µg/mL (≈ 198 µM)
Cc1nn(CC(=O)N/N=C2\SCC(=O)N2c2ccccc2)c(=O)n1CCCn1ccnc1 | inactive | 62.5 µg/mL (≈ 138 µM) | inactive | inactive | inactive | inactive | inactive | inactive | inactive | inactive
Cc1nn(CC(=O)NN)c(=O)n1CCCn1ccnc1 | inactive | 125 µg/mL (≈ 448 µM) | inactive | inactive | inactive | inactive | inactive | 125 µg/mL (≈ 448 µM) | 125 µg/mL (≈ 448 µM) | inactive
COc1ccc(/C=N/NC(=O)Cn2nc(C)n(/N=C/c3ccncc3)c2=O)cc1O | 125 µg/mL (≈ 305 µM) | inactive | inactive | inactive | inactive | inactive | inactive | inactive | inactive | inactive
Cc1nn(-c2ccc(/N=C3\SCC(=O)N3Cc3ccccc3)cc2F)c(=O)n1CCCn1ccnc1 | 500 µg/mL (≈ 989 µM) | 125 µg/mL (≈ 247 µM) | inactive | inactive | inactive | inactive | inactive | inactive | inactive | 500 µg/mL (≈ 989 µM)
